Ends that are not written are not given here.
How the values were obtained:
[1] = tested on: SD rats with CCl4-induced hepatic fibrosis; experiment: CCl4-induced hepatic fibrosis animal model; format: in vivo; conditions: CCl4 8 weeks, polypeptides 6 mg/kg s.c. once a day, colchicine intragastric 5 times/week
Method: Source and strain: SPF level, SD rats, provided by Shanghai Xipuer-Bikai laboratory Animal Co., Ltd. (laboratory animal license: SCXK (hu) 2013-0016)
There were 10 rats in each group. Modeling was performed on the rats. Each group other than the blank group was injected with 40% CCl4 intraperitoneally twice a week, the first injection was performed at 3 mL/kg, and then administration was performed at 2 mL/kg. Administration was performed for 8 weeks, and a total of 16 injections were provided to induce hepatic fibrosis. After the intraperitoneal injection of CCl4 for the fourth time, polypeptide therapy was started on the next day, and administration was performed by subcutaneous injection once a day until the end of induction. After the intraperitoneal injection of CCl4 for the fourth time, colchicine was administrated on the next day at 200 μg/kg, 5 times a week, and intragastric administration therapy was implemented. After induction for 8 weeks, the administration was stopped. On the second day, the SD rats were dissected, blood was taken, and the liver tissue was taken and stored in a refrigerator at −80° C. for later use. The expressions of AST and ALT in serum and HYP in the rat liver tissue were detected.

[2] = tested on: SD rats with bleomycin-induced pulmonary fibrosis; experiment: Bleomycin-induced pulmonary fibrosis animal model; format: in vivo; conditions: for Survival rate (%): bleomycin 5 mg/kg intratracheal, polypeptides 10 mg/kg subcutaneous twice a day for 14 days, positive drug Nintedanib intragastric once a day, model group 57.1%; for content of HYP in lung tissues, difference from model group / content of TGF-β1 in serum, difference from model group: polypeptides 10 mg/kg s.c. twice a day, Nintedanib 25 mg/kg intragastric once a day, 14 days
Method: Source and strain: clean SD rats, provided by Comparative Medicine Center of Yangzhou University (laboratory animal production license: SCXK (Su) 2012-0004); Certification of Using of Laboratory Animal: SYXK (Su) 2012-0035).
SD rats were anesthetized by intraperitoneal injection of 1 mL/100 g 4% chloral hydrate. After anesthesia, the rats were fixed and their necks were disinfected by using cotton with 75% alcohol. The skin of the rat neck was longitudinally cut with scissors, and the fascia and muscle were longitudinally bluntly torn with tweezers to expose the trachea. A syringe was inserted into the trachea to inject 5 mg/kg bleomycin, while a blank group was injected with an equal amount of normal saline. Then a rat plate was quickly erected and rotated, the rats' breathing was observed, the neck wound was sterilized after rotation and was sewn, and an amoxicillin anti-inflammatory drug was sprinkled on the suture. After the operation, the rats were put back into a dry and clean cage for resting, waiting was performed for awakening. The rats were awakened after about 1-2 hours, and then fed normally. On the 7th day after modeling, modeling group animals randomly fell into a model group, a Nintedanib positive drug group, polypeptide I, II, III and IV dosage groups, and a normal control group, and the groups were administered separately for an administration cycle of 14 days. Living situations of rats were observed every day and their weights were weighed. After administration for 14 days, the eyeballs were removed and blood was taken, the rats were dissected, and lungs were taken. The content of TGF-β1 in serum and the content of HYP in lung tissues were detected.

[3] = tested on: SD rats with renal fibrosis; experiment: Renal fibrosis model (ureter ligation); format: in vivo; conditions: 6 mg/kg s.c. twice a day, 14 days
Method: Clean grade male SD rats, purchased from Nanjing Qinglong Mountain Animal Farm, and weighed 180-200 g at the time of purchase, 190-210 g at the beginning of modeling, and 180-200 g at the beginning of administration.
A renal fibrosis animal model was established. SD rats were anesthetized with 4% chloral hydrate, injected with 1 mL/100 g intraperitoneally, fixed to an operation board, and sterilized in an operation area for later use. […] Muscular layers and abdominal walls were sewed layer by layer, the suture was disinfected with alcohol. After SD rats woke up, the rats were put into a cage for feeding. In the blank group, ureter was not ligated, and other steps were the same.
Then, the animals fell into a blank group, a model group, and polypeptide administration groups, with 10 animals in each group, and the administration was started on the second day after the operation, and was performed for 14 days. After administration for 14 days, blood was taken and supernatant was taken to detect the content of TGF-β1 in serum.

[4] = tested on: mice with myocardial fibrosis; experiment: Isoprenaline-induced myocardial fibrosis model; format: in vivo; conditions: BALB/c mice, isoprenaline 5 mg/kg 7 days; 12 mg/kg s.c. twice a day
Method: 1. Experimental Mice: 10-Week-Old Male BALB/c Mice (with an Average Weight of 20 g).
In the model group, the experimental mice were injected with isoprenaline (ISO) (5 mg/kg) subcutaneously on the back of the mice every day for 7 consecutive days, and the mice were injected with normal saline subcutaneously (200 μL/mouse) every day. In the blank group, normal saline was injected subcutaneously (200 μL/mouse) every day. While a model was made, polypeptide drugs were administrated for treatment by subcutaneous injection. After the 8th day, blood was taken and was centrifuged, the supernatant was taken, and the content of TGF-β1 in serum was detected.

mice with skin fibrosis = experiment: Bleomycin-induced skin fibrosis model; format: in vivo, C57/BL black mice; conditions: C57/BL mice, bleomycin s.c. 28 days; 10 mg/kg s.c. twice a day
Method: Male C57/BL black mice aged 6-8 weeks, purchased from Nanjing Qinglong Mountain Animal Farm. Bleomycin (10 μg/mL) was injected subcutaneously every day for 28 days to form skin fibrosis. During the modeling period, the administration groups were given polypeptide drugs twice a day for treatment. After modeling, the mice were killed on the next day, and the skin tissue of the mouse back was taken to detect the content of HYP in the skin tissue. [table]

Streptococcus pneumoniae = experiment: Mouse pneumonia model, bacterial pneumonia; format: in vivo, BALB/C mice; design: unit not given here; conditions: nasal drip, average values + standard deviation
Description: (§1) A mouse pneumonia model was successfully established by using a nasal drip method. BALB/C mice with a body weight of 18-24 g were selected, and then anesthetized with ether on day 0, day 1 and day 2, respectively, prepared Streptococcus pneumoniae bacteria solution, adenovirus concentrated solution, Mycoplasma pneumoniae, Chlamydia pneumoniae, protozoa and pneumonia fungi were slowly dropped into the nasal cavity of the mice, so that the bacteria solutions entered the trachea and bronchi, and the bacteria solutions were prevented from flowing into the esophagus during the operation to avoid inactivation of the bacteria solutions, so that the mouse pneumonia model was established. After the model was successfully established, the polypeptide according to the present disclosure was administered, as shown in FIG. 9 and Table 7. […] The experimental results are represented on the basis of average values+standard deviation.

adenovirus = experiment: Mouse pneumonia model, viral pneumonia; format: in vivo, BALB/C mice; design: unit not given here; conditions: nasal drip, average values + standard deviation
Description: as §1

Mycoplasma pneumoniae = experiment: Mouse pneumonia model, mycoplasma pneumonia; format: in vivo, BALB/C mice; design: unit not given here; conditions: nasal drip, average values + standard deviation
Description: as §1

Chlamydia pneumoniae = experiment: Mouse pneumonia model, chlamydia pneumonia; format: in vivo, BALB/C mice; design: unit not given here; conditions: nasal drip, average values + standard deviation
Description: as §1

protozoa = experiment: Mouse pneumonia model, protozoal pneumonia; format: in vivo, BALB/C mice; design: unit not given here; conditions: nasal drip, average values + standard deviation
Description: as §1

pneumonia fungi = experiment: Mouse pneumonia model, fungal pneumonia; format: in vivo, BALB/C mice; design: unit not given here; conditions: nasal drip, average values + standard deviation
Description: as §1

[5] = tested on: multiple pulmonary infections; experiment: Mouse pneumonia model, pneumonia caused by pulmonary infections; format: in vivo, BALB/C mice; design: unit not given here; conditions: nasal drip, average values + standard deviation
Description: as §1

[6] = bleomycin-induced pulmonary fibrosis

Row | Molecule | content of ALT in serum, difference from model group [1] | content of AST in serum, difference from model group [1] | content of HYP in the liver tissue, difference from model group [1] | Survival rate (%) [2] | content of HYP in lung tissues, difference from model group [2, 6] | content of TGF-β1 in serum, difference from model group [2, 6] | content of TGF-β1 in serum, difference from model group [3] | content of TGF-β1 in serum, difference from model group [4] | content of HYP in the skin tissue, difference from model group (mice with skin fibrosis) | Inhibitory effect on pulmonary infections: Bacterial pneumonia (Streptococcus pneumoniae) | Inhibitory effect on pulmonary infections: Viral pneumonia (adenovirus) | Inhibitory effect on pulmonary infections: Mycoplasma pneumonia (Mycoplasma pneumoniae) | Inhibitory effect on pulmonary infections: Chlamydia pneumonia (Chlamydia pneumoniae) | Inhibitory effect on pulmonary infections: Protozoal pneumonia (protozoa) | Inhibitory effect on pulmonary infections: Fungal pneumonia (pneumonia fungi) | Inhibitory effect on pulmonary infections: Pneumonia caused by pulmonary infections [5] | reduction of HYP in lung tissues compared with the positive drug ([2]; bleomycin-induced pulmonary fibrosis, comparison with Nintedanib)
1 | COc1cc2c(c(OC)c1OC)-c1ccc(OC)c(=O)cc1[C@@H](NC(C)=O)CC2 [Colchicine, reference compound] | significantly lower than those in the model group | highly significantly different from the model group (** P<0.01) | highly significantly different from the model group (*** P<0.001) |  |  |  |  |  |  |  |  |  |  |  |  |  | 
2 | COC(=O)c1ccc2c(c1)NC(=O)/C2=C(\Nc1ccc(N(C)C(=O)CN2CCN(C)CC2)cc1)c1ccccc1 [Nintedanib, reference compound] |  |  |  | 85.7% | highly significantly different from the model group (** P<0.01) | highly significantly different from the model group (*** P<0.001) |  |  |  |  |  |  |  |  |  |  | 
3 | PRCWCGEGGGGIVRRADRAAVPGGGGRGD (cysteine pairing not given here) [Polypeptide III] |  | highly significantly different from the model group (*** P<0.001) | highly significantly different from the model group (*** P<0.001) | 85.7% | significantly different from the model group (*P<0.05) | highly significantly different from the model group (*** P<0.001) | highly significantly different from the model group (** P<0.01) | highly significantly different from the model group (** P<0.01) | highly significantly different from the model group (*P<0.05) | 47.29 ± 8.76 | 67.49 ± 9.94 | 43.93 ± 5.53 | 56.40 ± 5.49 | 64.29 ± 8.70 | 62.88 ± 5.94 | 56.81 ± 3.13 | 
4 | PRCWRGEGGGGIAVVRRADRAPGGGGRGD [Polypeptide I] |  | highly significantly different from the model group (*** P<0.001) | highly significantly different from the model group (*** P<0.001) | 85.7% | highly significantly different from the model group (*** P<0.001) | highly significantly different from the model group (*** P<0.001) | highly significantly different from the model group (*** P<0.001) | highly significantly different from the model group (** P<0.01) | highly significantly different from the model group (** P<0.01) | 34.83 ± 7.95 | 50.00 ± 6.84 | 36.48 ± 5.55 | 37.18 ± 7.46 | 48.16 ± 5.46 | 47.54 ± 9.68 | 47.52 ± 7.88 | better effects than the positive drug
5 | PRCYCGEGGGGIVRRADRAAVPGGGGRGD (cysteine pairing not given here) [Polypeptide IV] |  | highly significantly different from the model group (*** P<0.001) | highly significantly different from the model group (*** P<0.001) | 92.9% | highly significantly different from the model group (** P<0.01) | highly significantly different from the model group (** P<0.01) | highly significantly different from the model group (*** P<0.001) | highly significantly different from the model group (*P<0.05) | highly significantly different from the model group (*P<0.05) | 43.69 ± 8.66 | 70.33 ± 9.27 | 41.20 ± 7.30 | 45.86 ± 5.22 | 62.16 ± 3.28 | 53.22 ± 4.14 | 50.99 ± 6.88 | 
6 | Penicillin [reference compound] |  |  |  |  |  |  |  |  |  | 37.05 ± 4.35 | 48.07 ± 2.07 | 39.78 ± 5.23 | 32.57 ± 3.13 | 40.34 ± 3.02 | 36.87 ± 2.82 | 39.56 ± 4.35 | 

From patent US12398196B2, “Fused polypeptide with multifunctional activities and use thereof” (NANJING ANJI BIOLOGICAL TECHNOLOGY CO., LTD., priority 2019, dated 2025)
